Legend:
Test in all cases: relative viability (nuclei count vs DMSO), 5 days (fraction); higher = more cells survive
[1] = compound: COc1cc(N2CCC(N3CCN(C)CC3)CC2)ccc1Nc1ncc(Cl)c(Nc2ccccc2S(=O)(=O)C(C)C)n1 [NVP-TAE684] + COc1cc2c(Oc3ccc(NC(=O)C4(C(=O)Nc5ccc(F)cc5)CC4)cc3F)ccnc2cc1OCCCN1CCOCC1 [Foretinib] (partner 0.25 µM)
Procedure, shortened: (§1)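 Dosing by pin tool came one day after lung cancer cell lines were seeded in 1536-well plates, using either one drug or a fixed anchor-drug dose plus five library-drug doses (not always all listed) in √10 steps. After 5 days, nuclei were counted on 4× images. Relative viability is treated-well nuclei count divided by vehicle-well nuclei count, and values are medians of duplicate plates.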

[2] = compound: C#Cc1cccc(Nc2ncnc3cc(OC)c(OCCCCCCC(=O)NO)cc23)c1 [CUDC-101] + C[C@@H](Oc1cc(-c2cnn(C3CCNCC3)c2)cnc1N)c1c(Cl)ccc(F)c1Cl [Crizotinib] (partner 1 µM)
Procedure, shortened: as §1

[3] = compound: COc1cc2/c(=N/c3ccc(Br)cc3F)nc[nH]c2cc1OCC1CCN(C)CC1 [Vandetanib] + O=C(c1cc(Cc2n[nH]c(=O)c3ccccc23)ccc1F)N1CCN(C(=O)C2CC2)CC1 [Olaparib] (partner 8 µM)
Procedure, shortened: as §1

[4] = compound: C#Cc1cccc(Nc2ncnc3cc(OC)c(OCCCCCCC(=O)NO)cc23)c1 [CUDC-101] + CC(C)C[C@H](NC(=O)[C@H](Cc1ccccc1)NC(=O)c1cnccn1)B(O)O [Bortezomib] (partner 0.002 µM)
Procedure, shortened: as §1

| Cell Line | relative viability ([1]; first compound 0.2 µM) | relative viability ([1]; first compound 0.6325 µM) | relative viability ([1]; first compound 2 µM) | relative viability ([2]; first compound 0.01 µM) | relative viability ([2]; first compound 0.03162 µM) | relative viability ([2]; first compound 0.1 µM) | relative viability ([2]; first compound 0.3162 µM) | relative viability ([2]; first compound 1 µM) | relative viability ([3]; first compound 0.02 µM) | relative viability ([3]; first compound 0.06325 µM) | relative viability ([3]; first compound 0.2 µM) | relative viability ([3]; first compound 0.6325 µM) | relative viability ([3]; first compound 2 µM) | relative viability ([4]; first compound 0.01 µM) | relative viability ([4]; first compound 0.03162 µM) | relative viability ([4]; first compound 0.1 µM) | relative viability ([4]; first compound 0.3162 µM) | relative viability ([4]; first compound 1 µM) |
| --- | --- | --- | --- | --- | --- | --- | --- | --- | --- | --- | --- | --- | --- | --- | --- | --- | --- | --- |
| LXF-289 | 1.05 | 0.958 | 0.715 | 0.804 | 0.835 | 0.828 | 0.736 | 0.577 | 1.01 | 1.05 | 0.682 | 1 | 1 | 1.02 | 0.987 | 0.972 | 0.953 | 0.704 |
| NCI-H23 | 1.03 | 0.769 | 0.356 | 0.68 | 0.442 | 0.639 | 0.547 | 0.495 | 0.346 | 0.275 | 0.328 | 0.343 | 0.335 | 0.922 | 0.935 | 1.18 | 1.13 | 0.955 |
| NCI-H322M | 0.828 | 0.827 | 0.565 | 0.958 | 0.903 | 0.774 | 0.748 | 0.538 | 0.76 | 0.709 | 0.718 | 0.681 | 0.585 | 1.15 | 1.44 | 1.18 | 1.08 | 0.776 |
| NCI-H441 | 0.892 | 0.832 | 0.382 | 0.833 | 0.739 | 0.87 | 0.843 | 0.514 | 0.498 | 0.576 | 0.646 | 0.658 | 0.616 | 0.662 | 0.433 | 0.541 | 0.593 | 0.335 |

— the supplement of paper PMC10307832
